Drawing on ChEMBL document CHEMBL1156251, “Structure--activity relationships of polymyxin antibiotics” (J Med Chem, 2010), this text covers MIC and GI for nine molecules.

The subject of experiment [1] is Escherichia coli. In words: Antimicrobial activity against Escherichia coli. The class given is functional.
In another experiment the test system is Pseudomonas aeruginosa. The experiment can be described thus: Antimicrobial activity against Pseudomonas aeruginosa. In kind it is functional, organism-based.
A further experiment has as its system Klebsiella pneumoniae. In words: Antimicrobial activity against Klebsiella pneumoniae. In kind it is functional.
In experiment [2] the test system is Escherichia coli. The experiment can be described thus: Antimicrobial activity against Escherichia coli at 10 ug/mL. In kind it is functional.

Values after ≈ are worked out from the molar mass of the structure shown.

`CC(C)C[C@@H]1NC(=O)[C@@H](Cc2ccccc2)NC(=O)[C@H](CCN)NC(=O)[C@@H](NC(=O)[C@H](CCN)NC(=O)[C@H](NC(=O)[C@H](C)NC(=O)[C@@H](C)NC(=O)[C@H](C)N)[C@@H](C)O)CCNC(=O)[C@@H]([C@@H](C)O)NC(=O)[C@H](CCN)NC(=O)[C@H](CCN)NC1=O`: the MIC in the experiment with Escherichia coli [1], in the experiment on Pseudomonas aeruginosa and against Klebsiella pneumoniae was at least 500 µg/mL in each case.

`CC(C)C[C@@H]1NC(=O)[C@@H](Cc2ccccc2)NC(=O)[C@H](CCN)NC(=O)[C@@H](NC(=O)[C@H](CCN)NC(=O)[C@H](NC(=O)OCC2c3ccccc3-c3ccccc32)[C@@H](C)O)CCNC(=O)[C@@H]([C@@H](C)O)NC(=O)[C@H](CCN)NC(=O)[C@H](CCN)NC1=O`: the MIC with Escherichia coli [1] amounted to 0.8 µg/mL (≈ 0.675 µM); in the experiment with Pseudomonas aeruginosa, 8 µg/mL (≈ 6.75 µM); in the experiment on Klebsiella pneumoniae, 62 µg/mL (≈ 52.3 µM).

For the molecule `CC(C)C[C@@H]1NC(=O)[C@@H](Cc2ccccc2)NC(=O)[C@H](CCN)NC(=O)[C@@H](NC(=O)[C@H](CCN)NC(=O)[C@H](NC(=O)[C@H](C)NC(=O)[C@@H](C)NC(=O)[C@H](C)NC(=O)[C@H](C)NC(=O)[C@@H](C)NC(=O)[C@H](C)N)[C@@H](C)O)CCNC(=O)[C@@H]([C@@H](C)O)NC(=O)[C@H](CCN)NC(=O)[C@H](CCN)NC1=O`, the MIC against Escherichia coli [1], against Pseudomonas aeruginosa and in the experiment with Klebsiella pneumoniae was at least 500 µg/mL in each case.

In the case of `CCCCCCCC(=O)N[C@H](C(=O)N[C@@H](CCC(N)=O)C(=O)N[C@H]1CCNC(=O)[C@H]([C@@H](C)O)NC(=O)[C@H](CCN)NC(=O)[C@H](CCN)NC(=O)[C@H](CC(C)C)NC(=O)[C@@H](Cc2ccccc2)NC(=O)[C@H](CCN)NC1=O)[C@@H](C)O`, the GI in the experiment with Escherichia coli [2] stood at 10 square millimeter.

In the case of `CCCCCCCC(=O)N[C@@H](CCN)C(=O)N[C@H](C(=O)N[C@@H](CCN)C(=O)N[C@H]1CCNC(=O)[C@H]([C@@H](C)O)NC(=O)[C@H](CCNC(=O)CCl)NC(=O)[C@H](CCN)NC(=O)[C@H](CC(C)C)NC(=O)[C@@H](Cc2ccccc2)NC(=O)[C@H](CCN)NC1=O)[C@@H](C)O` [CHLOROACETYL DAB9 POLYMYXIN B], the figures for the minimum inhibitory concentration (MIC) with Escherichia coli [1], against Pseudomonas aeruginosa and in the experiment on Klebsiella pneumoniae were 0.454 µg/mL (≈ 0.359 µM), 0.085 µg/mL (≈ 0.0671 µM) and 9.5 µg/mL (≈ 7.5 µM), respectively.

Turning to `CCCCCCCC(=O)N[C@@H](CCN)C(=O)N[C@H](C(=O)N[C@@H](CCN)C(=O)N[C@H]1CCNC(=O)[C@H]([C@@H](C)O)NC(=O)[C@H](CCNC(=O)C(Cl)Cl)NC(=O)[C@H](CCN)NC(=O)[C@H](CC(C)C)NC(=O)[C@@H](Cc2ccccc2)NC(=O)[C@H](CCN)NC1=O)[C@@H](C)O` [DICHLOROACETYL DAB9 POLYMYXIN B], the MIC was 1.54 µg/mL (≈ 1.18 µM) against Escherichia coli [1], 0.995 µg/mL (≈ 0.765 µM) in the experiment on Pseudomonas aeruginosa and 0.82 µg/mL (≈ 0.631 µM) in the experiment on Klebsiella pneumoniae.

For `CCCCCCCC(=O)N[C@@H](CCN)C(=O)N[C@H](C(=O)N[C@@H](CCN)C(=O)N[C@H]1CCNC(=O)[C@H]([C@@H](C)O)NC(=O)[C@H](CCNC(C)C)NC(=O)[C@H](CCN)NC(=O)[C@H](CC(C)C)NC(=O)[C@@H](Cc2ccccc2)NC(=O)[C@H](CCN)NC1=O)[C@@H](C)O` [DIMETHYL DAB9 POLYMYXIN B], the minimum inhibitory concentration (MIC) amounted to 0.537 µg/mL (≈ 0.436 µM) with Escherichia coli [1], 0.456 µg/mL (≈ 0.37 µM) with Pseudomonas aeruginosa and 16 µg/mL (≈ 13 µM) in the experiment with Klebsiella pneumoniae.

As to `CCCCCCCC(=O)N[C@@H](CCN)C(=O)N[C@H](C(=O)N[C@@H](CCN)C(=O)N[C@H]1CCNC(=O)[C@H]([C@@H](C)O)NC(=O)[C@H](CCNC(=O)CO)NC(=O)[C@H](CCN)NC(=O)[C@H](CC(C)C)NC(=O)[C@@H](Cc2ccccc2)NC(=O)[C@H](CCN)NC1=O)[C@@H](C)O` [HYDROXYACETYL DAB9 POLYMYXIN B], the MIC turned out to be 1.54 µg/mL (≈ 1.23 µM) against Escherichia coli [1], 1.53 µg/mL (≈ 1.23 µM) with Pseudomonas aeruginosa and 22.6 µg/mL (≈ 18.1 µM) against Klebsiella pneumoniae.

With `CCCCCCCC(=O)N[C@@H](CCN)C(=O)N[C@H](C(=O)N[C@@H](CCN)C(=O)N[C@H]1CCNC(=O)[C@H]([C@@H](C)O)NC(=O)[C@H](CCNC(=O)C(N)CCCN)NC(=O)[C@H](CCN)NC(=O)[C@H](CC(C)C)NC(=O)[C@@H](Cc2ccccc2)NC(=O)[C@H](CCN)NC1=O)[C@@H](C)O` (stereo partly drawn) [L-LYSYL DAB9 POLYMYXIN B], the values for the MIC in the experiment with Escherichia coli [1], against Pseudomonas aeruginosa and in the experiment with Klebsiella pneumoniae were 0.173 µg/mL (≈ 0.133 µM), 0.032 µg/mL (≈ 0.0245 µM) and 2.8 µg/mL (≈ 2.15 µM), respectively.
